According to patent publication US20260248783A1 (ASCLETIS BIOSCIENCE CO., LTD., priority 2021, published 2026):

Legend:
[1] = biological target: T1, PD-1/PD-L1 (Homo sapiens, UniProt Q9NZQ7); assay: PD-1/PD-L1 Homogeneous Time-Resolved Fluorescence (HTRF) Binding Assay; conditions: PD-1/PD-L1 HTRF activity; 3 nM PD1, 10 nM PD-L1, 25° C.
T1 construct: Recombinant human PD-L1 protein (19-238) with a Histag at the C-terminus; purchased AcroBiosystems PD1-H5229 (PD-L1); PD1-H5257 (PD-1)
Method in brief: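 Human PD-L1 (19-238, His-tag) 10 nM and PD-1 (25-167, Fc-tag) 3 nM preincubated 40 min with inhibitor in PBS pH 7.4, 0.05% Tween-20, 0.1% BSA, 1% DMSO, 25 °C. Eu-anti-human IgG (1 nM) and anti-His-APC (20 nM) added, 60 min, 665/620 nm ratio; IC50 from percent control activity versus log concentration.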

[2] = biological target: T2, extracellular domains of PD-L1 (Homo sapiens, UniProt Q9NZQ7); assay: PD-L1 Dimerization; assay type: biochemical; conditions: PD-L1-Eu and PD-L1-A2, ratio 665 nm/615 nm
T2 construct: specifically dimerize the extracellular domains of PD-L1
Description: Example 108. PD-L1 Dimerization
Compounds were tested in biochemical protein-protein interaction assays to determine if they can specifically dimerize the extracellular domains of PD-L1. • (1) Diluted cpd 1:3 in succession in DMSO for each column for 10 samples • (2) Transferred 0.2 μL cpds solution in each row to 384 assay plate using Echo, each column containing 2 replicates • (3) Added 20 μL prepared mixture include PD-L1-Eu and PD-L1-A2 solution to assay plate, centrifuged at 1000 rpm for 1 min. • (4) Incubated at 25° C. for […]. • (5) Read fluorescence signal on Envision 2104 plate reader. • (6) Read the Ratio (665 nm/615 nm) signal on Envision. • (7) Analyzed the raw data using the equation (V. Data analysis)

T2 sequence (Q9NZQ7 19-238 limits assumed): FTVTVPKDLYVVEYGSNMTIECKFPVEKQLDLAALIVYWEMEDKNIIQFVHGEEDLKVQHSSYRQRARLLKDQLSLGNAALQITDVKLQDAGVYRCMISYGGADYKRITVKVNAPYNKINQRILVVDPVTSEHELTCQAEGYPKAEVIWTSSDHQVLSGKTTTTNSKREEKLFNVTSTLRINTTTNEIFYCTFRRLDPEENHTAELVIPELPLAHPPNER
T1 sequence (Q9NZQ7 19-238): as the sequence (Q9NZQ7 19-238 limits assumed) above

| SMILES | IC50 [1] | EC50 [2] |
| --- | --- | --- |
| Cc1cn2cc(-c3cccc(-c4cccc(-c5cc6c(=O)n(CCNC[C@@H]7CCC(=O)N7)c(C)cn6c5)c4Cl)c3Cl)cc2c(=O)n1CCNC[C@@H]1CCC(=O)N1 [Compound 49, 7,7′-(2,2′-dichloro-[1,1′-biphenyl]-3,3′-diyl)bis(3-methyl-2-(2-((((S)-5-oxopyrrolidin-2-yl)methyl)amino)ethyl)pyrrolo[1,2-a]pyrazin-1(2H)-one)] | < 10 nM | ≥ 100 nM |
| Cc1cn2nc(-c3cccc(-c4cccc(-c5cc6c(=O)n(CCN[C@@](C)(CO)C(=O)O)c(C)cn6n5)c4Cl)c3Cl)cc2c(=O)n1CCN[C@@](C)(CO)C(=O)O [Compound 95, (2S,2'S)-2,2′-((((2,2′-dichloro-[1,1′-biphenyl]-3,3′-diyl)bis(6-methyl-4-oxopyrazolo[1,5-a]pyrazine-2,5(4H)-diyl))bis(ethane-2,1-diyl))bis(azanediyl))bis(3-hydroxy-2-methylpropanoic acid)] | 10 to 100 nM | ≥ 100 nM |
| Cc1cn2nc(-c3cccc(-c4cccc(-c5cc6c(=O)n(CCN[C@]7(C(=O)O)C[C@@H](O)C7)c(C)cn6n5)c4Cl)c3Cl)cc2c(=O)n1CCN[C@]1(C(=O)O)C[C@@H](O)C1 [Compound 101, (1r,1′r,3r,3′r)-1,1′-((((2,2′-dichloro-[1,1′-biphenyl]-3,3′-diyl)bis(6-methyl-4-oxopyrazolo[1,5-a]pyrazine-2,5(4H)-diyl))bis(ethane-2,1-diyl))bis(azanediyl))bis(3-hydroxycyclobutane-1-carboxylic acid)] | < 10 nM | < 50 nM |
| Cn1c(CN2CC[C@H](C(=O)O)C2)cn2cc(-c3cccc(-c4cccc(-c5cc6c(=O)n(C)c(CN7CC[C@H](C(=O)O)C7)cn6c5)c4Cl)c3Cl)cc2c1=O [Compound 43, (3S,3'S)-1,1′-(((2,2′-dichloro-[1,1′-biphenyl]-3,3′-diyl)bis(2-methyl-1-oxo-1,2-dihydropyrrolo[1,2-a]pyrazine-7,3-diyl))bis(methylene))bis(pyrrolidine-3-carboxylic acid)] | 10 to 100 nM | 50 to 100 nM |
| Cc1cn2nc(-c3cccc(-c4cccc(-c5cc6c(=O)n(CCN7CCOCC7C(=O)O)c(C)cn6n5)c4Cl)c3Cl)cc2c(=O)n1CCN1CCOCC1C(=O)O (stereo not shown) [Compound 86, 4,4′-(((2,2′-dichloro-[1,1′-biphenyl]-3,3′-diyl)bis(6-methyl-4-oxopyrazolo[1,5-a]pyrazine-2,5(4H)-diyl))bis(ethane-2,1-diyl))bis(morpholine-3-carboxylic acid)] | ≥ 100 nM |  |
| Cc1cn2nc(-c3cccc(-c4cccc(-c5cc6c(=O)n(C(C)CN[C@@H](CO)C(=O)O)c(C)cn6n5)c4Cl)c3Cl)cc2c(=O)n1C(C)CN[C@@H](CO)C(=O)O (stereo partly drawn) [Compound 94, (2S,2'S)-2,2′-((((2,2′-dichloro-[1,1′-biphenyl]-3,3′-diyl)bis(6-methyl-4-oxopyrazolo[1,5-a]pyrazine-2,5(4H)-diyl))bis(propane-2,1-diyl))bis(azanediyl))bis(3-hydroxypropanoic acid)] | 10 to 100 nM |  |
| Cc1cn2nc(-c3cccc(-c4cccc(-c5cc6c(=O)n(C[C@@H]7CCC(=O)N7)c(C)cn6n5)c4Cl)c3Cl)cc2c(=O)n1C[C@@H]1CCC(=O)N1 [Compound 29] | < 10 nM |  |
| Cn1c(-c2cccc(-c3cccc(-c4cc5ncn(C[C@@H]6CCC(=O)N6)c(=O)c5n4C)c3Cl)c2Cl)cc2ncn(C[C@@H]3CCC(=O)N3)c(=O)c21 [Compound 4, 6,6′-(2,2′-dichloro-[1,1′-biphenyl]-3,3′-diyl)bis(5-methyl-3-(((S)-5-oxopyrrolidin-2-yl)methyl)-3,5-dihydro-4H-pyrrolo[3,2-d]pyrimidin-4-one)] | ≥ 100 nM |  |
| Cc1cn2nc(-c3cccc(-c4cccc(-c5cc6c(=O)n(CCCN[C@@H](CO)C(=O)O)c(C)cn6n5)c4Cl)c3Cl)cc2c(=O)n1CCCN[C@@H](CO)C(=O)O [Compound 70, (2S,2'S)-2,2′-((((2,2′-dichloro-[1,1′-biphenyl]-3,3′-diyl)bis(6-methyl-4-oxopyrazolo[1,5-a]pyrazine-2,5(4H)-diyl))bis(propane-3,1-diyl))bis(azanediyl))bis(3-hydroxypropanoic acid)] | 10 to 100 nM |  |
| Cc1cn2cc(-c3cccc(-c4cccc(-c5cc6c(=O)n(C[C@H]7CCCN7)c(C)cn6c5)c4Cl)c3Cl)cc2c(=O)n1C[C@H]1CCCN1 [Compound 39, 7,7′-(2,2′-dichloro-[1,1′-biphenyl]-3,3′-diyl)bis(3-methyl-2-(((R)-pyrrolidin-2-yl)methyl)pyrrolo[1,2-a]pyrazin-1(2H)-one)] | 10 to 100 nM |  |
| O=C1CC[C@@H](Cn2cnc3sc(-c4cccc(-c5cccc(-c6cc7c(=O)n(C[C@@H]8CCC(=O)N8)cnc7s6)c5Cl)c4Cl)cc3c2=O)N1 [Compound 2, 6,6′-(2,2′-dichloro-[1,1′-biphenyl]-3,3′-diyl)bis(3-(((S)-5-oxopyrrolidin-2-yl)methyl)thieno[2,3-d]pyrimidin-4(3H)-one)] | 10 to 100 nM |  |

Now from value to molecule:

| IC50 [1] | EC50 [2] | SMILES |
| --- | --- | --- |
| < 10 nM | < 50 nM | Cc1cn2nc(-c3cccc(-c4cccc(-c5cc6c(=O)n(CCN[C@H]7C[C@H](O)C7)c(C)cn6n5)c4Cl)c3Cl)cc2c(=O)n1CCN[C@H]1C[C@H](O)C1 [Compound 90, 2,2′-(2,2′-dichloro-[1,1′-biphenyl]-3,3′-diyl)bis(5-(2-(((1r,3r)-3-hydroxycyclobutyl)amino)ethyl)-6-methylpyrazolo[1,5-a]pyrazin-4(5H)-one)] |
| < 10 nM | < 50 nM | Cc1cn2nc(-c3cccc(-c4cccc(-c5cc6c(=O)n(CCN[C@H]7C[C@@H](O)C7)c(C)cn6n5)c4Cl)c3Cl)cc2c(=O)n1CCN[C@H]1C[C@@H](O)C1 [Compound 91, 2,2′-(2,2′-dichloro-[1,1′-biphenyl]-3,3′-diyl)bis(5-(2-(((1s,3s)-3-hydroxycyclobutyl)amino)ethyl)-6-methylpyrazolo[1,5-a]pyrazin-4(5H)-one)] |
| 10 to 100 nM | ≥ 100 nM | Cn1c(CN[C@@H](CO)C(=O)O)cn2nc(-c3cccc(-c4cccc(-c5cc6c(=O)n(C)c(CN[C@@H](CO)C(=O)O)cn6n5)c4Cl)c3Cl)cc2c1=O [Compound 80, (2S,2'S)-2,2′-((((2,2′-dichloro-[1,1′-biphenyl]-3,3′-diyl)bis(5-methyl-4-oxo-4,5-dihydropyrazolo[1,5-a]pyrazine-2,6-diyl))bis(methylene))bis(azanediyl))bis(3-hydroxypropanoic acid)] |
| 10 to 100 nM |  | O=c1c2cc(-c3cccc(-c4cccc(-c5cc6c(=O)n(CCn7nccn7)cnn6c5)c4Cl)c3Cl)cn2ncn1CCn1nccn1 [Compound 25, 6,6′-(2,2′-dichloro-[1,1′-biphenyl]-3,3′-diyl)bis(3-(2-(2H-1,2,3-triazol-2-yl)ethyl)pyrrolo[2,1-f][1,2,4]triazin-4(3H)-one)] |
| 10 to 100 nM |  | CC(=O)NCCNCc1cn2cc(-c3cccc(-c4cccc(-c5cc6c(=O)[nH]c(CNCCNC(C)=O)cn6c5)c4Cl)c3Cl)cc2c(=O)[nH]1 [Compound 72, N,N′-(((((2,2′-dichloro-[1,1′-biphenyl]-3,3′-diyl)bis(1-oxo-1,2-dihydropyrrolo[1,2-a]pyrazine-7,3-diyl))bis(methylene))bis(azanediyl))bis(ethane-2,1-diyl))diacetamide] |
| 10 to 100 nM |  | Cc1cn2nc(-c3cccc(-c4cccc(-c5cc6c(=O)n(CCN7CCCCC7C(=O)O)c(C)cn6n5)c4Cl)c3Cl)cc2c(=O)n1CCN1CCCCC1C(=O)O (stereo not shown) [Compound 79, 1,1′-(((2,2′-dichloro-[1,1′-biphenyl]-3,3′-diyl)bis(6-methyl-4-oxopyrazolo[1,5-a]pyrazine-2,5(4H)-diyl))bis(ethane-2,1-diyl))bis(piperidine-2-carboxylic acid)] |
| ≥ 100 nM |  | Cc1cn2nc(-c3cccc(-c4cccc(-c5cc6c(=O)n(CCN[C@@H](CN)C(=O)O)c(C)cn6n5)c4Cl)c3Cl)cc2c(=O)n1CCNC(CN)C(=O)O (stereo in doubt) [Compound 67, (2S,2'S)-2,2′-((((2,2′-dichloro-[1,1′-biphenyl]-3,3′-diyl)bis(6-methyl-4-oxopyrazolo[1,5-a]pyrazine-2,5(4H)-diyl))bis(ethane-2,1-diyl))bis(azanediyl))bis(3-aminopropanoic acid)] |
| < 10 nM |  | O=C1CC[C@@H](Cn2ccn3nc(-c4cccc(-c5cccc(-c6cc7c(=O)n(C[C@@H]8CCC(=O)N8)ccn7n6)c5Cl)c4Cl)cc3c2=O)N1 [Compound 7, 2,2′-(2,2′-dichloro-[1,1′-biphenyl]-3,3′-diyl)bis(5-(((S)-5-oxopyrrolidin-2-yl)methyl)pyrazolo[1,5-a]pyrazin-4(5H)-one)] |
| < 10 nM |  | Cc1c(-c2cc3c(=O)n(C[C@@H]4CCC(=O)N4)cnn3c2)cccc1-c1cccc(-c2cc3c(=O)n(C[C@@H]4CCC(=O)N4)cnn3c2)c1C [Compound 17, 6,6′-(2,2′-dimethyl-[1,1′-biphenyl]-3,3′-diyl)bis(3-(((S)-5-oxopyrrolidin-2-yl)methyl)pyrrolo[2,1-f][1,2,4]triazin-4(3H)-one)] |
| < 10 nM |  | Cc1nn2cc(-c3cccc(-c4cccc(-c5cc6c(=O)n(C[C@@H]7CCC(=O)N7)c(C)nn6c5)c4Cl)c3Cl)cc2c(=O)n1C[C@@H]1CCC(=O)N1 [Compound 35, 6,6′-(2,2′-dichloro-[1,1′-biphenyl]-3,3′-diyl)bis(2-methyl-3-(((S)-5-oxopyrrolidin-2-yl)methyl)pyrrolo[2,1-f][1,2,4]triazin-4(3H)-one)] |
